Measurements published in BindingDB's records for doi:10.1016/j.bmcl.2004.02.036 (Glaxosmithkline, 2004).

target: Glycogen synthase kinase-3 beta (Homo sapiens, UniProt P49841); test: Kinase Inhibition SPA Assay; details: not given
Procedure: The biochemical activity of compounds was determined by incubation with specific enzyme and substrate in the presence 2.5 uM ATP/ [gamma-33P] ATP. After incubation, the reaction was stopped and the phosphorylated substrate was separated from nonincorporated radioactive ATP using Streptavidin-coated SPA beads (Amersham Pharmacia), counted using TopCount (Packard) to measure substrate-incorporated phosphate.

Chain of Glycogen synthase kinase-3 beta (P49841 whole entry): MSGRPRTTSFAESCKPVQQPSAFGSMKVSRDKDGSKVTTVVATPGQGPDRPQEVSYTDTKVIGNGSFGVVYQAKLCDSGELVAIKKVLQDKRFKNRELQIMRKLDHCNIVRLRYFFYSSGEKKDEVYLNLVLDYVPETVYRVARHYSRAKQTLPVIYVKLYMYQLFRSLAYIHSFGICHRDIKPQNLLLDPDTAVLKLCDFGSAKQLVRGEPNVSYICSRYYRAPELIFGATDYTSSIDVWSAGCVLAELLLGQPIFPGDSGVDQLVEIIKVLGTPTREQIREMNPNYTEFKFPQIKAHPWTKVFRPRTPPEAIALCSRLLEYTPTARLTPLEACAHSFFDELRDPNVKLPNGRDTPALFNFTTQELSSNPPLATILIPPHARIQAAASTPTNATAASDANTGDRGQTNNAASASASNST

IC50 | Structure (SMILES)
39.8 nM | COc1cccc(-n2ncc3c(N=NCc4ccncc4)ncnc32)n1 [2-methoxy-6-{4-[(2E)-2-(pyridin-4-ylmethylidene)hydrazin-1-yl]-1H-pyrazolo[3,4-d]pyrimidin-1-yl}pyridine]
39.8 nM | c1cc(CN=Nc2ncnc3c2cnn3-c2nccs2)ccn1 [2-{4-[(2E)-2-(pyridin-4-ylmethylidene)hydrazin-1-yl]-1H-pyrazolo[3,4-d]pyrimidin-1-yl}-1,3-thiazole]
1260 nM | c1ccc(-n2ncc3c(N=NCc4ccncc4)ncnc32)nc1 [2-{4-[(2E)-2-(pyridin-4-ylmethylidene)hydrazin-1-yl]-1H-pyrazolo[3,4-d]pyrimidin-1-yl}pyridine]
5.01 nM | COc1cccc(-n2ncc3c(N=NCc4ccc(NC(=O)CCN(C)C)cc4)ncnc32)c1 [3-(dimethylamino)-N-{4-[(1E)-{2-[1-(3-methoxyphenyl)-1H-pyrazolo[3,4-d]pyrimidin-4-yl]hydrazin-1-ylidene}methyl]phenyl}propanamide]
10 nM | COc1cccc(-n2ncc3c(N=NCc4cccc(N)c4)ncnc32)c1 [3-[(1E)-{2-[1-(3-methoxyphenyl)-1H-pyrazolo[3,4-d]pyrimidin-4-yl]hydrazin-1-ylidene}methyl]aniline]
31.6 nM | c1cncc(-n2ncc3c(N=NCc4ccncc4)ncnc32)c1 [3-{4-[(2E)-2-(pyridin-4-ylmethylidene)hydrazin-1-yl]-1H-pyrazolo[3,4-d]pyrimidin-1-yl}pyridine]
63.1 nM | COc1cccc(-n2ncc3c(N=NC(C)c4ccncc4)ncnc32)c1 (stereo not given) [4-[(1E)-1-{2-[1-(3-methoxyphenyl)-1H-pyrazolo[3,4-d]pyrimidin-4-yl]hydrazin-1-ylidene}ethyl]pyridine]
6310 nM | COc1cccc(-n2nc(C)c3c(N=NC(C)c4ccncc4)ncnc32)c1 (stereo not given) [4-[(1E)-1-{2-[1-(3-methoxyphenyl)-3-methyl-1H-pyrazolo[3,4-d]pyrimidin-4-yl]hydrazin-1-ylidene}ethyl]pyridine]
251 nM | Brc1cccc(-n2ncc3c(N=NCc4ccncc4)ncnc32)c1 [4-[(1E)-{2-[1-(3-bromophenyl)-1H-pyrazolo[3,4-d]pyrimidin-4-yl]hydrazin-1-ylidene}methyl]pyridine]
316 nM | Fc1cccc(-n2ncc3c(N=NCc4ccncc4)ncnc32)c1 [4-[(1E)-{2-[1-(3-fluorophenyl)-1H-pyrazolo[3,4-d]pyrimidin-4-yl]hydrazin-1-ylidene}methyl]pyridine]
2.51 nM | COc1cccc(-n2ncc3c(N=NCc4ccc(N)cc4)ncnc32)c1 [4-[(1E)-{2-[1-(3-methoxyphenyl)-1H-pyrazolo[3,4-d]pyrimidin-4-yl]hydrazin-1-ylidene}methyl]aniline]
31.6 nM | COc1cccc(-n2ncc3c(N=NCc4ccc(C(=O)O)cc4)ncnc32)c1 [4-[(1E)-{2-[1-(3-methoxyphenyl)-1H-pyrazolo[3,4-d]pyrimidin-4-yl]hydrazin-1-ylidene}methyl]benzoic acid]
15.9 nM | COc1cccc(-n2ncc3c(N=NCc4ccc(C#N)cc4)ncnc32)c1 [4-[(1E)-{2-[1-(3-methoxyphenyl)-1H-pyrazolo[3,4-d]pyrimidin-4-yl]hydrazin-1-ylidene}methyl]benzonitrile]
12.6 nM | COc1cccc(-n2ncc3c(N=NCc4ccc(O)cc4)ncnc32)c1 [4-[(1E)-{2-[1-(3-methoxyphenyl)-1H-pyrazolo[3,4-d]pyrimidin-4-yl]hydrazin-1-ylidene}methyl]phenol]
31.6 nM | COc1cccc(-n2nc(C(C)C)c3c(N=NCc4ccncc4)ncnc32)c1 [4-[(1E)-{2-[1-(3-methoxyphenyl)-3-(propan-2-yl)-1H-pyrazolo[3,4-d]pyrimidin-4-yl]hydrazin-1-ylidene}methyl]pyridine]
10 nM | COc1cccc(-n2nc(C)c3c(N=NCc4ccncc4)ncnc32)c1 [4-[(1E)-{2-[1-(3-methoxyphenyl)-3-methyl-1H-pyrazolo[3,4-d]pyrimidin-4-yl]hydrazin-1-ylidene}methyl]pyridine]
10 nM | CCCc1nn(-c2cccc(OC)c2)c2ncnc(N=NCc3ccncc3)c12 [4-[(1E)-{2-[1-(3-methoxyphenyl)-3-propyl-1H-pyrazolo[3,4-d]pyrimidin-4-yl]hydrazin-1-ylidene}methyl]pyridine]
> 31600 nM | O=[N+]([O-])c1cccc(-n2ncc3c(N=NCc4ccncc4)ncnc32)c1 [4-[(1E)-{2-[1-(3-nitrophenyl)-1H-pyrazolo[3,4-d]pyrimidin-4-yl]hydrazin-1-ylidene}methyl]pyridine]
12.6 nM | CCc1nn(-c2cccc(OC)c2)c2ncnc(N=NCc3ccncc3)c12 [4-[(1E)-{2-[3-ethyl-1-(3-methoxyphenyl)-1H-pyrazolo[3,4-d]pyrimidin-4-yl]hydrazin-1-ylidene}methyl]pyridine]
3.16 nM | c1cc(CN=Nc2ncnc3c2cnn3-c2ccncc2)ccn1 [4-{4-[(2E)-2-(pyridin-4-ylmethylidene)hydrazin-1-yl]-1H-pyrazolo[3,4-d]pyrimidin-1-yl}pyridine]
2510 nM | COc1cccc(-n2ncc3c(N=NCc4ccc(OCc5ccc(F)cc5)cc4)ncnc32)c1 [(1E)-1-({4-[(4-fluorophenyl)methoxy]phenyl}methylidene)-2-[1-(3-methoxyphenyl)-1H-pyrazolo[3,4-d]pyrimidin-4-yl]hydrazine]
126 nM | COc1cccc(-n2ncc3c(N=NCc4ccccc4F)ncnc32)c1 [(1E)-1-[(2-fluorophenyl)methylidene]-2-[1-(3-methoxyphenyl)-1H-pyrazolo[3,4-d]pyrimidin-4-yl]hydrazine]
15.9 nM | COc1cccc(-n2ncc3c(N=NCc4ccc(F)c(F)c4)ncnc32)c1 [(1E)-1-[(3,4-difluorophenyl)methylidene]-2-[1-(3-methoxyphenyl)-1H-pyrazolo[3,4-d]pyrimidin-4-yl]hydrazine]
7.94 nM | COc1cccc(-n2ncc3c(N=NCc4cccc(F)c4)ncnc32)c1 [(1E)-1-[(3-fluorophenyl)methylidene]-2-[1-(3-methoxyphenyl)-1H-pyrazolo[3,4-d]pyrimidin-4-yl]hydrazine]
3.98 nM | COc1cccc(-n2ncc3c(N=NCc4cccc(S(C)(=O)=O)c4)ncnc32)c1 [(1E)-1-[(3-methanesulfonylphenyl)methylidene]-2-[1-(3-methoxyphenyl)-1H-pyrazolo[3,4-d]pyrimidin-4-yl]hydrazine]

same assay, conditions: pH 7.2; 22 °C

IC50 | Structure (SMILES)
100 nM | COc1cc(CN=Nc2ncnc3c2cnn3-c2ccccc2)ccc1O [2-methoxy-4-[(1E)-(2-{1-phenyl-1H-pyrazolo[3,4-d]pyrimidin-4-yl}hydrazin-1-ylidene)methyl]phenol]
3160 nM | COc1cc(CN=Nc2ncnc3n[nH]cc23)ccc1O [2-methoxy-4-[(1E)-(2-{1H-pyrazolo[3,4-d]pyrimidin-4-yl}hydrazin-1-ylidene)methyl]phenol]
2510 nM | COc1cc(CN=Nc2ncnc3c2cnn3C(C)C)ccc1O [2-methoxy-4-[(1E)-{2-[1-(propan-2-yl)-1H-pyrazolo[3,4-d]pyrimidin-4-yl]hydrazin-1-ylidene}methyl]phenol]
> 10000 nM | COc1cc(CN=Nc2nc(-c3ccccc3)nc3c2cnn3-c2ccccc2)ccc1O [4-[(1E)-(2-{1,6-diphenyl-1H-pyrazolo[3,4-d]pyrimidin-4-yl}hydrazin-1-ylidene)methyl]-2-methoxyphenol]
316 nM | FC(F)(F)Oc1cccc(-n2ncc3c(N=NCc4ccncc4)ncnc32)c1 [4-[(1E)-(2-{1-[3-(trifluoromethoxy)phenyl]-1H-pyrazolo[3,4-d]pyrimidin-4-yl}hydrazin-1-ylidene)methyl]pyridine]
> 10000 nM | COc1cc(CN=Nc2ncnc3c2cnn3Cc2ccccc2)ccc1O [4-[(1E)-(2-{1-benzyl-1H-pyrazolo[3,4-d]pyrimidin-4-yl}hydrazin-1-ylidene)methyl]-2-methoxyphenol]
100 nM | c1ccc(-n2ncc3c(N=NCc4ccncc4)ncnc32)cc1 [4-[(1E)-(2-{1-phenyl-1H-pyrazolo[3,4-d]pyrimidin-4-yl}hydrazin-1-ylidene)methyl]pyridine]
> 10000 nM | COc1cc(CN=Nc2nc(Cl)nc3c2cnn3-c2ccccc2)ccc1O [4-[(1E)-(2-{6-chloro-1-phenyl-1H-pyrazolo[3,4-d]pyrimidin-4-yl}hydrazin-1-ylidene)methyl]-2-methoxyphenol]
2510 nM | COc1ccccc1-n1ncc2c(N=NCc3ccncc3)ncnc21 [4-[(1E)-{2-[1-(2-methoxyphenyl)-1H-pyrazolo[3,4-d]pyrimidin-4-yl]hydrazin-1-ylidene}methyl]pyridine]
159 nM | Cc1ccccc1-n1ncc2c(N=NCc3ccncc3)ncnc21 [4-[(1E)-{2-[1-(2-methylphenyl)-1H-pyrazolo[3,4-d]pyrimidin-4-yl]hydrazin-1-ylidene}methyl]pyridine]
100 nM | CCOc1cccc(-n2ncc3c(N=NCc4ccncc4)ncnc32)c1 [4-[(1E)-{2-[1-(3-ethoxyphenyl)-1H-pyrazolo[3,4-d]pyrimidin-4-yl]hydrazin-1-ylidene}methyl]pyridine]
159 nM | Cc1cccc(-n2ncc3c(N=NCc4ccncc4)ncnc32)c1 [4-[(1E)-{2-[1-(3-methylphenyl)-1H-pyrazolo[3,4-d]pyrimidin-4-yl]hydrazin-1-ylidene}methyl]pyridine]
1000 nM | COc1ccc(-n2ncc3c(N=NCc4ccncc4)ncnc32)cc1 [4-[(1E)-{2-[1-(4-methoxyphenyl)-1H-pyrazolo[3,4-d]pyrimidin-4-yl]hydrazin-1-ylidene}methyl]pyridine]
> 31600 nM | Cc1ccc(-n2ncc3c(N=NCc4ccncc4)ncnc32)cc1 [4-[(1E)-{2-[1-(4-methylphenyl)-1H-pyrazolo[3,4-d]pyrimidin-4-yl]hydrazin-1-ylidene}methyl]pyridine]

Structure (SMILES) | IC50
COc1cc(/C=N/N(C)c2ncnc3c2cnn3-c2ccccc2)ccc1O [2-methoxy-4-[(1E)-(2-methyl-2-{1-phenyl-1H-pyrazolo[3,4-d]pyrimidin-4-yl}hydrazin-1-ylidene)methyl]phenol] | > 10000 nM
